Reference: patent US20040106685A1, “Method of preventing and/or treating asthma using PBPB” (COUNCIL OF SCIENTIFIC & INDUSTRIAL RESEARCH, priority 2002, published 2004)

What was measured:
Assay type in all cases: in vivo, BALB/c male mice
[1] = test system: mouse model of asthma (ova sensitized mice); assay: Ova-induced airway constriction (fall of SGaw) in sensitized mice, dual-chamber whole body plethysmography
Procedure: (§1) BALB/c male mice, eight-ten weeks old, weighing 18-22 grams were acclimatized for one week under the laboratory conditions. Mice were sensitized by injecting intraperitoneally 0.2 ml of saline containing 10 micrograms ovalbumin (ova) (sigma, USA) adsorbed on 2 mg aluminum hydroxide gel on days 0, 7 and 14 followed by aerosol inhalation for 5 consecutive days, from day 19 to 23 with 2% ova (in saline w/v) for 30 minutes daily. Aerosol challenge was performed by placing mice in Plexiglas chamber (20×20×10 cm^3) and ova or saline alone was aerosolized using a nebulizer (devilbiss, model 645, USA) at an airflow rate of 7 litre/minute, sham-sensitized mice received 0.2 ml of saline containing only 2 mg al(oh)3 on days, 0, 7 and 14 followed by inhalation of aerosol of saline without ova for 5 consecutive days.
(§2) The compound PBPB (sigma, USA) was dissolved in absolute alcohol (10 mg/ml). PBPB (20ul by volume) was given orally to each mouse. To evaluate the effect of PBPB on sensitization and the development of impaired airway sensitivity (preventive effect, FIG. 1a), five groups (six mice in each) of mice were used. One group was sham-sensitized control and another group was kept as sensitized control. The remaining three groups were given orally three different concentrations of PBPB (0.1, and 10 mg/kg body weight) daily starting from first to the last day of the sensitization the sham-sensitized and sensitized control mice were given only vehicle (20 ul alcohol) in a similar fashion. Initial measurements of specific airway conductance and airway reactivity of all the animals were carried out before starting the experiment ovalbumin induced airway constriction and airway reactivity were measured after sensitization protocol was over the measurements were done as described below (example 3,4 and 5).
(§3) To examine the therapeutic effect of PBPB on sensitized mice (therapeutic effect, FIG. ib), mice were sensitized as before without PBPB treatment and airway constriction to ova and airway reactivity to methacholine were measured as described below animals showing at least 40% fall in specific airway conductance to ova aerosol challenge were selected for this study the sensitized mice were randomly divided into 4 groups of 6 mice in each group three groups of mice were given daily three different concentrations of PBPB in 20 ul of alcohol adjusted to contain PBPB in a dose of 0.1, and 10 mg/kg body weight respectively for week fourth group was fed only 20 ul alcohol for one week to be used as sensitized control airway constriction and airway reactivity were again measured thereafter.
Airway calibre was measured in the term of specific airway conductance (SGaw). SGaw is a measure of the airway caliber and was estimated using a dual-chamber whole body plethysmograph (Agrawal, 1981). The dual-chamber whole body plethysmograph was designed in our laboratory to suit the size of mouse (FIG. 2). The change in the box pressure in response to breathing of the housed mouse was determined with a transducer (validyne mp 45+2 cmh20) and carrier amplifier (validyne model CD 15 carrier demodulator) that were connected to the x-channel of an oscilloscope Tektronix, model 6116, USA). […]
Animals were acclimatized in the body box in the beginning of the study and at the time of recording the loop, each individual mouse was housed for 10 minutes to set the basal loop correctly. Values of the slopes were recorded on getting at least three similar loops. […]

[2] = test system: mouse model of asthma (ova sensitized mice); assay: Airway reactivity to methacholine (MCh PD35) in sensitized mice
Procedure: as §1
as §2, with “The remaining three groups were given orally three different concentrations of PBPB (0.1, and 10 mg/kg body weight) daily starting from first to the last day of the sensitization the sham-sensitized and sensitized control mice were given only vehicle (20 ul alcohol) in a similar fashion.” left out
as §3
Airway calibre was measured in the term of specific airway conductance (SGaw). […] The change in the box pressure in response to breathing of the housed mouse was determined with a transducer (validyne mp 45+2 cmh20) and carrier amplifier (validyne model CD 15 carrier demodulator) that were connected to the x-channel of an oscilloscope Tektronix, model 6116, USA). […]

Ova-specific IgE = assay: Serum ova-specific IgE levels by Elisa
Procedure: (§4) In another embodiment of the present invention, wherein after testing the compound for the preventive as well as for therapeutic values in intact conscious mice, mice were sacrificed for collecting the blood and bronchoalveolar lavage (bat) fluid to measure the levels of IgE, cytokines 11-4, IL-5 and IFN-y and homophile. Ovalbumin specific IgE levels m the sera and the levels of IL-4, IL-5 and IFN-y in the BAL fluid were measured by Elisa kits. The prevalence of eosinophils was determined in BAL fluid by flow cytometry.
as §1
(§5) The compound PBPB (sigma, USA) was dissolved in absolute alcohol (10 mg/ml). PBPB (20ul by volume) was given orally to each mouse. […] Initial measurements of specific airway conductance and airway reactivity of all the animals were carried out before starting the experiment ovalbumin induced airway constriction and airway reactivity were measured after sensitization protocol was over the measurements were done as described below (example 3,4 and 5). […]
Serum IgE levels were measured in all the groups of mice by Elisa (FIG. 7). Ova-specific IgE levels were measured by enzyme linked immuno sorbent assay (Elisa). […]

eosinophils in BAL fluid = assay: Eosinophils in BAL fluid by flow cytometry
Procedure: as §4, §1, §5
The levels of eosinophils in BAL fluid were detected by flowcytometry (facsvantage, Becton Dickinson, USA) using the method described by bedner et al (1999). The cells were gated on the basis of the size and fluorescence (FSC versus FL 1) and the percentage of the gated cells was determined by cell quest software. […]

IFN-gamma, IL-4 and IL-5 = assay: Cytokines IFN-gamma, IL-4 and IL-5 in BAL fluid by Elisa kits; conditions: for IL-4 in BAL fluid / IL-5 in BAL fluid / IFN-γ in BAL fluid: mean SEM, n = 4; for IL-4 in BAL fluid: sensitized 143.0 ± 3.0; for IL-5 in BAL fluid: sensitized 158.7 ± 22.5; for IFN-γ in BAL fluid: sensitized 162.0 ± 45.2; for IFN-γ:IL-4 ratio in BAL fluid: sensitized 1.1
Procedure: as §4, §1, §2, §3
The cytokines IFN-gamma, IL-4 and IL-5 were measured in the BAL fluid by enzyme-linked ImmunoSorbent assay (Elisa) kits (BD pharmingen, USA) as per the manufacturer's protocol.

[3] = PBPB 1 mg/kg body weight after sensitization
[4] = PBPB 1 mg/kg body weight during sensitization

Compound: O=C(CBr)c1ccc(Br)cc1 [PBPB, parabromophenacyl bromide]
- fall of SGaw level from basal level after ova challenge ([1]; preventive: oral 0.1 mg PBPB/kg body weight during sensitization, sensitized control fall 48%): 17%
- fall of SGaw after ova challenge, effect of further dose increase ([1]; preventive: oral 'lo mg/kg body weight' during sensitization): did not show any additional effect
- fall of SGaw from basal levels after ova challenge ([1]; preventive: oral 'mg PBPB/kg body weight' (dose figure missing) during sensitization, sensitized control fall 48%): 4%
- SGaw levels recovered, of basal SGaw levels ([1]; therapeutic: oral for one week to already sensitized mice, 10 mg PBPB/kg body weight): 96%
- SGaw levels recovered, of normal basal levels ([1]; therapeutic: oral for one week to already sensitized mice, dose 'mg/kg body weight' (figure missing)): 86%
- MCh PD35, of its initial values ([2]; preventive: treatment during sensitization, 10 mg/kg body weight): 115%
- MCh PD35 recovery, of its initial levels ([2]; preventive: treatment during sensitization, dose 'mg/kg body weight' (figure missing), 24 hours after last ova challenge): 93%
- MCh PD35 recovered, of the basal value ([2]; therapeutic: oral to sensitized mice already having airway hyper reactivity, 1 mg/kg body weight): over 81%
- MCh PD35 recovery, of the basal value ([2]; therapeutic: oral to sensitized mice already having airway hyper reactivity, 10 mg/kg body weight): 94%
- serum IgE levels, effect of higher dose (Ova-specific IgE; preventive: 10 mg of PBPB/kg body weight during sensitization): did not show additional effect
- mean serum IgE level lower compared to sensitized animals (Ova-specific IgE; preventive: oral 1 mg/kg body weight during sensitization, sensitized mice 384±22.8 ng/ml): 40%
- fall in serum IgE levels compared to vehicle treated sensitized mice (Ova-specific IgE; therapeutic: 1 mg/kg body weight fed for one week to already sensitized mice, p<0.05): 47%
- effective dose (eosinophils in BAL fluid; administration to mice during and after sensitization, inhibition of inflammation (eosinophils in BAL fluid)): 1 mg/kg body weight
- levels of eosinophils in BAL fluid (eosinophils in BAL fluid; preventive: oral 1 mg/kg body weight during sensitization): prevented the rise in the eosinophils levels
- levels of eosinophils in BAL fluid (eosinophils in BAL fluid; therapeutic: 1 mg/kg body weight in already sensitized mice, p<0.01 vs vehicle treated sensitized mice): reduced the levels of eosinophils significantly
- IL-4 in BAL fluid (IFN-gamma, IL-4 and IL-5; [3]): 42.4 ± 4.9 pg/mL
- IL-5 in BAL fluid (IFN-gamma, IL-4 and IL-5; [3]): 53.4 ± 2.2 pg/mL
- IFN-γ in BAL fluid (IFN-gamma, IL-4 and IL-5; [3]): 425.1 ± 54.0 pg/mL
- IFN-γ:IL-4 ratio in BAL fluid (IFN-gamma, IL-4 and IL-5; [3]): 10
- IL-4 in BAL fluid (IFN-gamma, IL-4 and IL-5; [4]): 91.0 ± 13.2 pg/mL
- IL-5 in BAL fluid (IFN-gamma, IL-4 and IL-5; [4]): 75.1 ± 7.4 pg/mL
- IFN-γ in BAL fluid (IFN-gamma, IL-4 and IL-5; [4]): 402 ± 14.4 pg/mL
- IFN-γ:IL-4 ratio in BAL fluid (IFN-gamma, IL-4 and IL-5; [4]): 4.4
